Data set [1] deals with absolute neutrophil count (ANC). Nature of the data set: Degree of neutropenia in phase I studies of S-CKD602 and NL-CKD602. Type of data set: in vivo, human. Particulars: patients with refractory solid tumors. An excerpt:
(§1) To examine the relationship between S-CKD602 PK and monocytes (MO) in patients, we evaluated the degree of neutropenia and monocytopenia as part of phase I studies of S-CKD602 and non-liposomal CKD-602 (NL-CKD602) in patients with refractory solid tumors. After administration of NL-CKD602, the % decrease at nadir in absolute neutrophil count (ANC) and MO were 86±11% and 87±12%, respectively (P>0.05). For NL-CKD602, the ratio of % decrease in MO to ANC was 1.1±0.4. After administration of S-CKD602, the % decrease at nadir in ANC and MO were 42±30% and 58±34%, respectively (P=0.001). For S-CKD602, the ratio of % decrease in MO to ANC was 2.1±2.0. The relationship between the % decrease in MO at nadir and CL of encapsulated CKD-602 and the release of CKD-602 from S-CKD602 in plasma are presented in FIGS. 3 and 4, respectively. […] The CL of encapsulated drug and release of drug from the liposome in plasma is related to a reduction in MO. […] Consistent with the PK-PD interaction between S-CKD602 and MO we also have reported that decreased DOXIL® CL from cycle 1 to 3 is related to a reduction in MO during each subsequent cycle (Gabizon et al., (1994) Cancer Res. 54: 987-992; La-Beck et al., (2009) J. Clin. Oncol. 27(15S)).

The next data set deals with monocytes (MO). The experiment in a line: Degree of monocytopenia in phase I studies of S-CKD602 and NL-CKD602. The class given is in vivo, human. The following applies: patients with refractory solid tumors.
Text: as §1

From patent publication US20130115271A1, “PREDICTORS OF PHARMACOKINETIC AND PHARMACODYNAMIC DISPOSITION OF CARRIER-MEDIATED AGENTS” (THE UNIVERSITY OF NORTH CAROLINA AT CHAPEL HILL, priority 2010, published 2013) come the findings set out here.

The structures appear in SMILES notation.

Take `CC[C@@]1(O)C(=O)OCc2c1cc1n(c2=O)Cc2c-1nc1ccccc1c2CCNC(C)C` [NL-CKD602]: the “% decrease at nadir in absolute neutrophil count (ANC)” value in data set [1] is on record as 86±11%. In the data set on monocytes (MO), the “% decrease at nadir in monocytes (MO)” value was determined as 87±12% and the “ratio of % decrease in MO to ANC” value turned out to be 1.1±0.4.
